Columns and labels:
[1] = tested on: HEK-Blue IFNα/β cells (IFNα-stimulated STAT1 SEAP reporter; TYK2 JH2); experiment: HEK-Blue IFNα/β SEAP reporter assay for profiling TYK2 pseudokinase (JH2) inhibition; type: cell-based; set-up: IFNα (TYK2 inhibitory activity, IC50): scale not given here; conditions: 1 ng/mL human recombinant IFNα; for IC50: Homo sapiens, HEK-Blue, read-out: IFNα (TYK2 inhibitory activity, IC50)
Method: (§1) Example B-1: HEK-Blue™ IL-23 and IFNα/β Reporter Assays for Profiling TYK2 Pseudokinase (JH2) Inhibition
(§2) HEK-Blue™ IL-23 and IFNα/β cells with a stably-integrated cytokine receptor and STAT3 or STAT1 express STAT-inducible secreted embryonic alkaline phosphatase (SEAP) reporter gene upon cytokine stimulation. These cells are plated in DMEM (Gibco) containing 10% heat-inactivated FBS (Gibco) and 100 U/mL PenStrep (Gibco) at 37° C. under 5% CO2 conditions for 20-22 hours. The cells are then pretreated with serially diluted test compounds for 60 min prior to stimulation with either 10 ng/mL human recombinant IL-23 (Miltenyl Biotech) or 1 ng/mL human recombinant IFNα (InvivoGen) for 22-24 hours for IL-23 or 16-18 h for IFNα. SEAP induction is measured using the QUANTI Blue™ Solution (InvivoGen) according to the manufacturer's instructions.

[2] = tested on: HEK-Blue IL-23 cells (IL-23-stimulated STAT3 SEAP reporter; TYK2 JH2); experiment: HEK-Blue IL-23 SEAP reporter assay for profiling TYK2 pseudokinase (JH2) inhibition; type: cell-based; conditions: 10 ng/mL human recombinant IL-23, SEAP reporter, read-out: IL23 (TYK2 inhibitory activity, IC50)
Method: as §1, §2

Compound | IC50 [1] [nM] | IC50 [2] [nM] | IFNα (TYK2 inhibitory activity, IC50) [1]
[2H]C([2H])([2H])NC(=O)c1cnc(NC(=O)C2CC2)cc1Nc1cccc2c1N(C)[C@H](C)c1nc(C)nn1-2 (single isomer, unassigned) [Compound 24] | 30 to 300 | < 30 | –
[2H]C([2H])([2H])NC(=O)c1cnc(NC(=O)C2CC2)cc1Nc1ccnc2c1N(C)Cc1nc(C)nn1-2 [Compound 86, 6-(cyclopropanecarboxamido)-4-((2,5-dimethyl-4,5-dihydropyrido[3,2-e][1,2,4]triazolo[1,5-a]pyrazin-6-yl)amino)-N-(methyl-d3)nicotinamide] | 300 to 1000 | 30 to 300 | –
[2H]C([2H])([2H])NC(=O)c1nnc(NC(=O)C2CC2)cc1Nc1cc(F)cc2c1N(C)[C@H](C)c1nc(C)nn1-2 (single isomer, unassigned) [Compound 109] | 300 to 1000 | 30 to 300 | –
[2H]C([2H])([2H])NC(=O)c1nnc(NC(=O)NC)cc1Nc1cccc2c1N(C)[C@H](C)c1nn(C)nc1-2 (single isomer, unassigned) [Compound 61] | 300 to 1000 | 30 to 300 | –
[2H]C([2H])([2H])NC(=O)c1nnc(NC(=O)[C@@H]2CC2(F)F)cc1Nc1cccc2c1N(C)Cc1nc(C)nn1-2 [Compound 41, (S)-6-(2,2-difluorocyclopropane-1-carboxamido)-4-((2,5-dimethyl-4,5-dihydro-[1,2,4]triazolo[1,5-a]quinoxalin-6-yl)amino)-N-(methyl-d3)pyridazine-3-carboxamide] | 30 to 300 | 30 to 300 | –
CNC(=O)c1nnc(Nc2ccc(F)cn2)cc1Nc1cccc2c1OCc1nc(C)nn1-2 [Compound 2, 6-((5-fluoropyridin-2-yl)amino)-N-methyl-4-((2-methyl-4H-benzo[b][1,2,4]triazolo[1,5-d][1,4]oxazin-6-yl)amino)pyridazine-3-carboxamide] | > 1000 | > 1000 | –
[2H]C([2H])([2H])NC(=O)c1nnc(NC(=O)C2CC2)cc1Nc1c(F)ccc2c1N(C)Cc1nc(C)nn1-2 [Compound 98, 6-(cyclopropanecarboxamido)-4-((7-fluoro-2,5-dimethyl-4,5-dihydro-[1,2,4]triazolo[1,5-a]quinoxalin-6-yl)amino)-N-(methyl-d3)pyridazine-3-carboxamide] | – | 30 to 300 | C/D
[2H]C([2H])([2H])NC(=O)c1nnc(NC(=O)[C@@H]2C[C@@H]2F)cc1Nc1nccc2c1N(C)Cc1nn(C)nc1-2 [Compound 116, 4-((2,5-dimethyl-4,5-dihydro-2H-[1,2,3]triazolo[4,5-c][1,7]naphthyridin-6-yl)amino)-6-((1S,2S)-2-fluorocyclopropane-1-carboxamido)-N-(methyl-d3)pyridazine-3-carboxamide] | 300 to 1000 | 30 to 300 | –
[2H]C([2H])([2H])NC(=O)c1nnc(NC(=O)C2CC2)cc1Nc1nccc2c1N(C)[C@H](C([2H])([2H])[2H])c1nn(C)nc1-2 [Compound 114, (R)-6-(cyclopropanecarboxamido)-4-((2,5-dimethyl-4-(methyl-d3)-4,5-dihydro-2H-[1,2,3]triazolo[4,5-c][1,7]naphthyridin-6-yl)amino)-N-(methyl-d3)pyridazine-3-carboxamide] | < 30 | < 30 | –
[2H]C([2H])([2H])NC(=O)c1nnc(Nc2cc(C)cc(C)c2)cc1Nc1cccc2c1N(C)Cc1nc(C)nn1-2 [Compound 16, 4-((2,5-dimethyl-4,5-dihydro-[1,2,4]triazolo[1,5-a]quinoxalin-6-yl)amino)-6-((3,5-dimethylphenyl)amino)-N-(methyl-d3)pyridazine-3-carboxamide] | – | 30 to 300 | C/D
[2H]C([2H])([2H])NC(=O)c1nnc(NC(=O)[C@H]2CC2(F)F)cc1Nc1cccc2c1N(C)Cc1nc(C)nn1-2 [Compound 42, (R)-6-(2,2-difluorocyclopropane-1-carboxamido)-4-((2,5-dimethyl-4,5-dihydro-[1,2,4]triazolo[1,5-a]quinoxalin-6-yl)amino)-N-(methyl-d3)pyridazine-3-carboxamide] | 30 to 300 | 30 to 300 | –
[2H]C([2H])([2H])NC(=O)c1nnc(NC(=O)C(C)C)cc1Nc1cccc2c1N(C)Cc1nc(C)nn1-2 [Compound 17, 4-((2,5-dimethyl-4,5-dihydro-[1,2,4]triazolo[1,5-a]quinoxalin-6-yl)amino)-6-isobutyramido-N-(methyl-d3)pyridazine-3-carboxamide] | 300 to 1000 | 30 to 300 | –
[2H]C([2H])([2H])NC(=O)c1nnc(NC(=O)C2CC2)cc1Nc1cccc2c1N(C)[C@@H](C([2H])([2H])[2H])c1nc(C)nn1-2 [Compound 43, (S)-6-(cyclopropanecarboxamido)-4-((2,5-dimethyl-4-(methyl-d3)-4,5-dihydro-[1,2,4]triazolo[1,5-a]quinoxalin-6-yl)amino)-N-(methyl-d3)pyridazine-3-carboxamide] | 300 to 1000 | 30 to 300 | –
CNC(=O)c1nnc(NC(=O)C2CC2)cc1Nc1cccc2c1OCc1nc(CO)nn1-2 [Compound 3, 6-(cyclopropanecarboxamido)-4-((2-(hydroxymethyl)-4H-benzo[b][1,2,4]triazolo[1,5-d][1,4]oxazin-6-yl)amino)-N-methylpyridazine-3-carboxamide] | > 1000 | > 1000 | –
[2H]C([2H])([2H])NC(=O)c1nnc(NC(=O)C2CC2)cc1Nc1ccnc2c1N(C)Cc1nc(C)nn1-2 [Compound 87, 6-(cyclopropanecarboxamido)-4-((2,5-dimethyl-4,5-dihydropyrido[3,2-e][1,2,4]triazolo[1,5-a]pyrazin-6-yl)amino)-N-(methyl-d3)pyridazine-3-carboxamide] | 300 to 1000 | 30 to 300 | –
[2H]C([2H])([2H])NC(=O)c1nnc(NC(=O)NC)cc1Nc1cc(F)cc2c1N(C)Cc1nc(C)nn1-2 [Compound 103, 4-((8-fluoro-2,5-dimethyl-4,5-dihydro-[1,2,4]triazolo[1,5-a]quinoxalin-6-yl)amino)-N-(methyl-d3)-6-(3-methylureido)pyridazine-3-carboxamide] | 30 to 300 | 30 to 300 | –
[2H]C([2H])([2H])NC(=O)c1nnc(NC(=O)CC(F)(F)F)cc1Nc1cccc2c1N(C)Cc1nc(C)nn1-2 [Compound 18, 4-((2,5-dimethyl-4,5-dihydro-[1,2,4]triazolo[1,5-a]quinoxalin-6-yl)amino)-N-(methyl-d3)-6-(3,3,3-trifluoropropanamido)pyridazine-3-carboxamide] | 300 to 1000 | 30 to 300 | –
[2H]C([2H])([2H])NC(=O)c1nnc(NC(=O)C2CC2)cc1Nc1cccc2c1N(C)[C@H](C)c1nn(C)nc1-2 (single isomer, unassigned) [Compound 59] | 30 to 300 | < 30 | –
[2H]C([2H])([2H])NC(=O)c1nnc(NC(=O)CN(C)C)cc1Nc1cccc2c1N(C)Cc1nc(C)nn1-2 [Compound 14, 4-((2,5-dimethyl-4,5-dihydro-[1,2,4]triazolo[1,5-a]quinoxalin-6-yl)amino)-6-(2-(dimethylamino)acetamido)-N-(methyl-d3)pyridazine-3-carboxamide] | 300 to 1000 | 30 to 300 | –
CNC(=O)c1nnc(Nc2ccc(F)cn2)cc1Nc1cccc2c1OCCCn1cnnc1-2 [Compound 74, 4-((6,7-dihydro-5H-benzo[b][1,2,4]triazolo[3,4-d][1,5]oxazocin-9-yl)amino)-6-((5-fluoropyridin-2-yl)amino)-N-methylpyridazine-3-carboxamide] | > 1000 | > 1000 | –
[2H]C([2H])([2H])NC(=O)c1nnc(NC(=O)C2CC2)cc1Nc1cccc2c1N(C)[C@H](C)c1nc(C)nn1-2 (single isomer, unassigned) [Compound 23] | 30 to 300 | < 30 | –
[2H]C([2H])([2H])NC(=O)c1cnc(NC(=O)C2CC2)cc1Nc1cc(F)cc2c1N(C)[C@H](C)c1nc(C)nn1-2 (single isomer, unassigned) [Compound 106] | > 1000 | 30 to 300 | –
[2H]C([2H])([2H])NC(=O)c1nnc(NC(=O)C2CC2)cc1Nc1nccc2c1N(C)[C@@H](C([2H])([2H])[2H])c1nn(C)nc1-2 [Compound 113, (S)-6-(cyclopropanecarboxamido)-4-((2,5-dimethyl-4-(methyl-d3)-4,5-dihydro-2H-[1,2,3]triazolo[4,5-c][1,7]naphthyridin-6-yl)amino)-N-(methyl-d3)pyridazine-3-carboxamide] | 30 to 300 | 30 to 300 | –
[2H]C([2H])([2H])NC(=O)c1nnc(N2CCN(C(C)C)C2=O)cc1Nc1cccc2c1N(C)Cc1nc(C)nn1-2 [Compound 81, 4-((2,5-dimethyl-4,5-dihydro-[1,2,4]triazolo[1,5-a]quinoxalin-6-yl)amino)-6-(3-isopropyl-2-oxoimidazolidin-1-yl)-N-(methyl-d3)pyridazine-3-carboxamide] | – | 30 to 300 | C/D
[2H]C([2H])([2H])NC(=O)c1nnc(NC(=O)CN2CCOCC2)cc1Nc1cccc2c1N(C)Cc1nc(C)nn1-2 [Compound 9, 4-((2,5-dimethyl-4,5-dihydro-[1,2,4]triazolo[1,5-a]quinoxalin-6-yl)amino)-N-(methyl-d3)-6-(2-morpholinoacetamido)pyridazine-3-carboxamide] | – | 30 to 300 | C/D

Reference: US12084458B2, “Substituted pyridines, pyridazines, and pyrimidines as TYK2 inhibitors” (Sudo Biosciences Limited, priority 2021, dated 2024)
